# Where a name gives a salt, the structure may show the parent alone.
# System: Human mast cells (CHMC)
# Test: LD Tryptase release assay in CHMC (mast cell activation induced by FcγR cross-linking)
# Format: cell-based
# Details: Homo sapiens, Mast cell, anti-IgG stimulation, activity of tryptase released upon degranulation
# Outline: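 Mast cells derived from CD38-negative progenitors were preincubated 1 h at 37 °C with compound in HEPES-buffered saline (pH 7.4, 0.1% BSA, compound diluted in buffer with 2% MeOH/1% DMSO). Cells were then stimulated 60 min with anti-human IgG (final 1 μg/mL). Released tryptase was measured on Z-Ala-Lys-Arg-AMC (30 min, room temperature, 355/460 nm) to give the IC50.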
row,SMILES,IC50
1,"CCOCC1CN(c2ccc(Nc3ncc(F)c(Nc4ccc5c(n4)NC(=O)CO5)n3)cc2)CCO1 (stereo in doubt) [Compound 41, N4-(3,4-dihydro-3-oxo-2H-pyrido[3,2-b][1,4]oxazin-6-yl)-5-fluoro-N2-[4-(((2S)-2-ethoxymethyl)morpholino)phenyl]-2,4-pyrimidinediamine]",100 to 500 nM
2,"CN(C[C@H]1CCCO1)c1ccc(Nc2ncc(F)c(Nc3ccc4c(n3)NC(=O)CO4)n2)cn1 [Compound 110, N4-(3,4-dihydro-3-oxo-2H-pyrido[3,2-b][1,4]oxazin-6-yl)-5-fluoro-N2-[6-(((R)-methyl(tetrahydrofuran-2-yl)methyl)amino)pyridin-3-yl]-2,4-pyrimidinediamine]",1000 to 100000 nM
3,"Cc1ccc(Nc2ncc(F)c(Nc3ccc4c(n3)NC(=O)C(C)(C)O4)n2)cn1 [Compound 76, N4-(2,2-dimethyl-3,4-dihydro-3-oxo-2H-pyrido[3,2-b][1,4]oxazin-6-yl)-5-fluoro-N2-[6-methylpyridin-3-yl]-2,4-pyrimidinediamine]",100 to 500 nM
4,"C[C@H]1CN(c2ccc(Nc3ncc(F)c(Nc4ccc5c(n4)NC(=O)CO5)n3)cn2)CCO1 [Compound 93, N4-(3,4-dihydro-3-oxo-2H-pyrido[3,2-b][1,4]oxazin-6-yl)-5-fluoro-N2-[6-((2S)-2-methylmorpholino)pyridin-3-yl]-2,4-pyrimidinediamine]",100 to 500 nM
5,"CC1(C)Oc2ccc(Nc3nc(Nc4ccc(N5CCC(N)CC5)cc4)ncc3F)nc2NC1=O [Compound 90, N4-(2,2-dimethyl-3,4-dihydro-3-oxo-2H-pyrido[3,2-b][1,4]oxazin-6-yl)-5-fluoro-N2-[4-(4-aminopiperidin-1-yl)phenyl]-2,4-pyrimidinediamine]",100 to 500 nM
6,"COC1CCN(c2ccc(Nc3ncc(F)c(Nc4ccc5c(n4)NC(=O)C(C)(C)O5)n3)cc2)CC1 [Compound 152, N4-(2,2-dimethyl-3,4-dihydro-3-oxo-2H-pyrido[3,2-b][1,4]oxazin-6-yl)-5-fluoro-N2-[4-(4-methoxypiperidin-1-yl)phenyl]-2,4-pyrimidinediamine]",< 100 nM
7,"CC1(C)Oc2ccc(Nc3nc(Nc4ccc(-c5cccnc5)nc4)ncc3F)nc2NC1=O [Compound 75, N4-(2,2-dimethyl-3,4-dihydro-3-oxo-2H-pyrido[3,2-b][1,4]oxazin-6-yl)-5-fluoro-N2-[2,3′-bipyridin-5-yl]-2,4-pyrimidinediamine]",1000 to 100000 nM
8,"CC1(C)Oc2ccc(Nc3nc(Nc4ccc(N5CCCCC5)cc4)ncc3F)nc2NC1=O [Compound 78, N4-(2,2-dimethyl-3,4-dihydro-3-oxo-2H-pyrido[3,2-b][1,4]oxazin-6-yl)-5-fluoro-N2-[4-(piperidin-1-yl)phenyl]-2,4-pyrimidinediamine]",1000 to 100000 nM
9,"CN1CCN(c2ccc(Nc3ncc(F)c(Nc4ccc5c(n4)NC(=O)CO5)n3)cn2)CC1 [Compound 19, N4-(3,4-dihydro-3-oxo-2H-pyrido[3,2-b][1,4]oxazin-6-yl)-5-fluoro-N2-[6-(4-methylpiperazin-1-yl)pyridin-3-yl]-2,4-pyrimidinediamine]",1000 to 100000 nM
10,"C=C1COCCN1c1ccc(Nc2ncc(F)c(Nc3ccc4c(n3)NC(=O)C(C)(C)O4)n2)cn1 [Compound 58, N4-(2,2-dimethyl-3,4-dihydro-3-oxo-2H-pyrido[3,2-b][1,4]oxazin-6-yl)-5-fluoro-N2-[6-(3-methylenemorpholino)pyridin-3-yl]-2,4-pyrimidinediamine]",1000 to 100000 nM
11,"CC1(C)Oc2ccc(Nc3nc(Nc4ccc(C5CCOCC5)nc4)ncc3F)nc2NC1=O [Compound 22, N4-(2,2-dimethyl-3,4-dihydro-3-oxo-2H-pyrido[3,2-b][1,4]oxazin-6-yl)-5-fluoro-N2-[6-tetrahydropyranopyridin-3-yl]-2,4-pyrimidinediamine]",100 to 500 nM
12,"CC1(C)Oc2ccc(Nc3nc(Nc4ccc(N5CCC(O)CC5)cc4)ncc3F)nc2NC1=O [Compound 77, N4-(2,2-dimethyl-3,4-dihydro-3-oxo-2H-pyrido[3,2-b][1,4]oxazin-6-yl)-5-fluoro-N2-[4-(4-hydroxypiperidin-1-yl)phenyl]-2,4-pyrimidinediamine]",< 100 nM

# Now from value to molecule:
row,IC50,SMILES
1,< 100 nM,"[2H]C1([2H])OC([2H])([2H])C([2H])([2H])N(c2ccc(Nc3ncc(F)c(Nc4ccc5c(n4)NC(=O)CO5)n3)cn2)C1([2H])[2H] [Compound 106, N4-(3,4-dihydro-3-oxo-2H-pyrido[3,2-b][1,4]oxazin-6-yl)-5-fluoro-N2-[6-(2,2,3,3,5,5,6,6-d8-morpholino)pyridin-3-yl]-2,4-pyrimidinediamine]"
2,100 to 500 nM,O=C1COc2ccc(Nc3nc(Nc4ccc(N5CCOCC5=O)cc4)ncc3F)nc2N1 [Compound 39]
3,100 to 500 nM,"CCOC[C@H]1CN(c2ccc(Nc3ncc(F)c(Nc4ccc5c(n4)NC(=O)C(C)(C)O5)n3)cn2)CCO1 [Compound 103, N4-(2,2-dimethyl-3,4-dihydro-3-oxo-2H-pyrido[3,2-b][1,4]oxazin-6-yl)-N2-[6-(((2R)-2-ethoxymethyl)morpholino)pyridin-3-yl]-5-fluoro-2,4-pyrimidinediamine]"
4,< 100 nM,"C[C@@H]1COCCN1c1ccc(Nc2ncc(F)c(Nc3ccc4c(n3)NC(=O)C(C)(C)O4)n2)cn1 [Compound 50, N4-(2,2-dimethyl-3,4-dihydro-3-oxo-2H-pyrido[3,2-b][1,4]oxazin-6-yl)-5-fluoro-N2-[6-((3R)-3-methylmorpholino)pyridin-3-yl]-2,4-pyrimidinediamine]"
5,1000 to 100000 nM,"CC1(C)Oc2ccc(Nc3nc(Nc4ccc(N5CCSCC5)cc4)ncc3F)nc2NC1=O [Compound 153, N4-(2,2-dimethyl-3,4-dihydro-3-oxo-2H-pyrido[3,2-b][1,4]oxazin-6-yl)-5-fluoro-N2-[4-thiomorpholinophenyl]-2,4-pyrimidinediamine]"
6,100 to 500 nM,"C[C@@H]1CN(c2ccc(Nc3ncc(F)c(Nc4ccc5c(n4)NC(=O)CO5)n3)cn2)C[C@H](C)O1 [Compound 95, rac-Cis-N4-(3,4-dihydro-3-oxo-2H-pyrido[3,2-b][1,4]oxazin-6-yl)-N2-[6-(2,6-dimethylmorpholino)pyridin-3-yl]-5-fluoro-2,4-pyrimidinediamine]"
7,< 100 nM,"Cc1cc(Nc2ncc(F)c(Nc3ccc4c(n3)NC(=O)CO4)n2)cnc1N1CCOC(C)(C)C1 [Compound 12, N4-(3,4-dihydro-3-oxo-2H-pyrido[3,2-b][1,4]oxazin-6-yl)-5-fluoro-N2-[5-methyl-6-(2,2-dimethylmorpholino)pyridin-3-yl]-2,4-pyrimidinediamine]"
8,< 100 nM,"CC1(C)Oc2ccc(Nc3nc(Nc4ccc(N5CCC(O)C5)nc4)ncc3F)nc2NC1=O (stereo in doubt) [Compound 55, N4-(2,2-dimethyl-3,4-dihydro-3-oxo-2H-pyrido[3,2-b][1,4]oxazin-6-yl)-5-fluoro-N2-[6-((3R)-3-hydroxypyrrolidin-1-yl)pyridin-3-yl]-2,4-pyrimidinediamine]"
9,< 100 nM,"CC1(C)CN(c2ccc(Nc3ncc(F)c(Nc4ccc5c(n4)NC(=O)CO5)n3)cc2)CCO1 [Compound 115, N4-(3,4-dihydro-3-oxo-2H-pyrido[3,2-b][1,4]oxazin-6-yl)-N2-[4-(2,2-dimethylmorpholino)phenyl]-5-fluoro-2,4-pyrimidinediamine]"
10,500 to 1000 nM,"CC1(C)Oc2ccc(Nc3nc(Nc4ccc(N5CCC(C(N)=O)C5)nc4)ncc3F)nc2NC1=O (centres unmarked) [Compound 70, N4-(2,2-dimethyl-3,4-dihydro-3-oxo-2H-pyrido[3,2-b][1,4]oxazin-6-yl)-5-fluoro-N2-[6-(3-(aminocarbonyl)pyrrolidin-1-yl)pyridin-3-yl]-2,4-pyrimidinediamine]"
11,100 to 500 nM,"C[C@@H]1CN(c2ccc(Nc3ncc(F)c(Nc4ccc5c(n4)NC(=O)CO5)n3)cc2)C[C@H](C)O1 [Compound 35, rac-Cis-N4-(3,4-dihydro-3-oxo-2H-pyrido[3,2-b][1,4]oxazin-6-yl)-5-fluoro-N2-[4-(2,6-dimethylmorpholino)phenyl]-2,4-pyrimidinediamine]"
12,500 to 1000 nM,COCCN(C)c1ccc(Nc2ncc(F)c(Nc3ccc4c(n3)NC(=O)CO4)n2)cn1 [Compound 98]
13,< 100 nM,"CC1(C)Oc2ccc(Nc3nc(Nc4ccc(N5CCOCC5)c(F)c4)ncc3F)nc2NC1=O [Compound 26, N4-(2,2-dimethyl-3,4-dihydro-3-oxo-2H-pyrido[3,2-b][1,4]oxazin-6-yl)-5-fluoro-N2-[3-fluoro-4-morpholinophenyl]-2,4-pyrimidinediamine]"
14,< 100 nM,"CN(C)C[C@@H]1CN(c2ccc(Nc3ncc(F)c(Nc4ccc5c(n4)NC(=O)CO5)n3)cc2)CCO1 (racemic) [Compound 121, rac-N4-(3,4-dihydro-3-oxo-2H-pyrido[3,2-b][1,4]oxazin-6-yl)-N2-[4-((2-dimethylaminomethyl)morpholino)phenyl]-5-fluoro-2,4-pyrimidinediamine]"
15,100 to 500 nM,"CO[C@@H]1CCN(c2ccc(Nc3ncc(F)c(Nc4ccc5c(n4)NC(=O)C(C)(C)O5)n3)cn2)C1 [Compound 65, N4-(2,2-dimethyl-3,4-dihydro-3-oxo-2H-pyrido[3,2-b][1,4]oxazin-6-yl)-5-fluoro-N2-[6-((3R)-3-methoxypyrrolidin-1-yl)pyridin-3-yl]-2,4-pyrimidinediamine]"
16,100 to 500 nM,"CCO[C@H]1CCN(c2ccc(Nc3ncc(F)c(Nc4ccc5c(n4)NC(=O)C(C)(C)O5)n3)cn2)C1 [Compound 57, N4-(2,2-dimethyl-3,4-dihydro-3-oxo-2H-pyrido[3,2-b][1,4]oxazin-6-yl)-5-fluoro-N2-1-2,4-pyrimidinediamine]"

# Same assay, conditions: anti-IgG stimulation, activity of tryptase released upon degranulation
row,SMILES,IC50
1,"C[C@H]1COCCN1c1ccc(Nc2ncc(F)c(Nc3ccc4c(n3)N(COP(=O)(O)O)C(=O)C(C)(C)O4)n2)cn1 [Compound 97, N4-(2,2-dimethyl-3,4-dihydro-4-[(dihydrogenphosphonoxy)methyl]-3-oxo-2H-pyrido[3,2-b][1,4]oxazin-6-yl)-5-fluoro-N2-[6-((3S)-3-methylmorpholino)pyridin-3-yl]-2,4-pyrimidinediamine disodium salt]",1000 to 100000 nM
